This is an account of results in PubChem BioAssay (NCI).

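How tested: cells in 96-well plates exposed to compound for 48 hours at five concentrations. At the GI50, growth is halved. Definition used: TGI = concentration required for complete inhibition of growth.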 Where only a bound is given, the exact number is not on record here.

Test systems include SW-620 colon; DMS 273 small cell lung; RXF 393 renal; HCT-116 colon; SNB-19 CNS; IGROV1 ovarian; HS 578T breast; DU-145 prostate; T-47D breast.
Common to all, as to assay: inhibition of tumour cell growth, NCI panel, 48 h

In the case of `COc1cc(Nc2cnc3ccc(C(F)(F)F)cc3n2)cc(OC)c1OC`, the TGI in the test with SW-620 colon, in the test with DMS 273 small cell lung, in the test on RXF 393 renal, with HCT-116 colon and in the test on SNB-19 CNS was more than 100 µM throughout.
As for `O=C1NC(=O)c2c1n(Cc1ccccc1)c(=O)n2Cc1ccccc1`, the TGI in the test with IGROV1 ovarian, with SW-620 colon, in the test with DMS 273 small cell lung, with RXF 393 renal, in the test with HCT-116 colon and with SNB-19 CNS was more than 100 µM throughout.
On to `Cc1ccc2c(c1)CN1c3ccc(C)cc3CN2C1c1ccccc1O`, for which the TGI is more than 100 µM with IGROV1 ovarian; more than 100 µM with SW-620 colon; more than 100 µM in the test on DMS 273 small cell lung; 61.2 µM in the test with RXF 393 renal; more than 100 µM in the test on HCT-116 colon.
Regarding `C[C@]12CC[C@H]3[C@@H](CCC4=CC(=O)CC[C@@]43C)[C@@H]1CC[C@@H]2c1csc(N)n1`, the GI50 was 4.98 µM in the test with IGROV1 ovarian; 5.28 µM in the test with SW-620 colon; 8.84 µM in the test with HS 578T breast; 10.8 µM in the test on RXF 393 renal; 3.15 µM in the test on HCT-116 colon; 6.72 µM in the test on DU-145 prostate. The GI50 with T-47D breast is 2.26 µM; in the test with SNB-19 CNS, 10.2 µM. Also, the TGI in the test with IGROV1 ovarian was determined as 20.6 µM; with SW-620 colon it was 20.8 µM; in the test with HS 578T breast, 35.8 µM; in the test on RXF 393 renal, 24.2 µM; in the test with HCT-116 colon, 15.3 µM; with DU-145 prostate, 24.5 µM. Further, the TGI in the test with T-47D breast turned out to be 18.8 µM; in the test on SNB-19 CNS, 31.2 µM.
For `CC(=O)O[C@H]1C(=O)[C@@]2(C)C([C@H](OC(=O)c3ccccc3)[C@]3(O)C[C@H](OC(=O)[C@H](O)[C@@H](NC(=O)c4ccccc4)c4ccccc4)C(C)=C1C3(C)C)[C@]1(OC(C)=O)CO[C@@H]1C[C@@H]2O` (stereo partly drawn), the GI50 in the test with IGROV1 ovarian was 0.41 µM; in the test with SW-620 colon it was less than 0.005 µM; in the test with RXF 393 renal, 0.00516 µM; in the test with HCT-116 colon it was less than 0.005 µM; in the test with DU-145 prostate, 0.00673 µM; in the test with T-47D breast, 0.00973 µM. Besides, the GI50 in the test on SNB-19 CNS is 0.0135 µM. Also, the TGI with IGROV1 ovarian was more than 50 µM; with SW-620 colon, more than 50 µM; in the test on HS 578T breast it was more than 50 µM; in the test on RXF 393 renal, 0.0382 µM; in the test on HCT-116 colon, more than 50 µM; in the test on DU-145 prostate, 0.0272 µM. The TGI with T-47D breast and in the test on SNB-19 CNS was more than 50 µM each time.
With `COc1cc([C@@H]2c3cc4c(cc3[C@@H](NC(=O)c3ccc(C#N)cc3)C3COC(=O)[C@@H]32)OCO4)cc(OC)c1O` (stereo partly drawn), the TGI with IGROV1 ovarian turned out to be 5.13 µM; with SW-620 colon it was 10.7 µM; with DMS 273 small cell lung it was 10.3 µM; with RXF 393 renal, 9.92 µM; in the test on HCT-116 colon it was 3.29 µM; in the test on SNB-19 CNS it was 4.65 µM.
For the compound `Cn1nccc1Nc1nccc(-c2ccn([C@H](CO)c3ccc(Cl)c(F)c3)c(=O)c2)n1`, the GI50 in the test on IGROV1 ovarian is 22.9 µM; in the test on SW-620 colon it was 5.02 µM; in the test with HS 578T breast, 30.8 µM; in the test with RXF 393 renal, 20.4 µM; in the test on HCT-116 colon it was 2.79 µM; in the test on DU-145 prostate, 27.7 µM. Moreover, the GI50 in the test on T-47D breast was 26.5 µM; in the test with SNB-19 CNS, 27.6 µM. For the same compound, the TGI with IGROV1 ovarian is more than 100 µM; with SW-620 colon it was 30.4 µM; in the test with HS 578T breast, more than 100 µM; with RXF 393 renal it was 65.5 µM; in the test on HCT-116 colon, 21.1 µM; with DU-145 prostate, more than 100 µM. Besides, the TGI in the test on T-47D breast and with SNB-19 CNS was more than 100 µM each time.
Regarding `CN(C)CCCC1(c2ccc(F)cc2)OCc2cc(-c3cccc4[nH]ccc34)ccc21` (stereo not drawn), the GI50 in the test on IGROV1 ovarian was 1.33 µM; in the test with SW-620 colon it was 1.77 µM; in the test on HS 578T breast, 2.12 µM; in the test with RXF 393 renal, 1.46 µM; in the test with HCT-116 colon, 1.37 µM; in the test with DU-145 prostate it was 1.77 µM. Besides, the GI50 in the test with T-47D breast was 1.75 µM; in the test on SNB-19 CNS, 1.74 µM. In addition, the TGI stood at 2.73 µM in the test with IGROV1 ovarian; 3.54 µM in the test on SW-620 colon; 5.03 µM in the test with HS 578T breast; 2.88 µM in the test on RXF 393 renal; 2.82 µM in the test with HCT-116 colon; 3.23 µM in the test on DU-145 prostate. Also, the TGI with T-47D breast is 3.78 µM; in the test on SNB-19 CNS it was 3.26 µM.
On to `COc1cc2c(N3CCN(C(=O)Nc4ccc(OC(C)C)cc4)CC3)ncnc2cc1OCCCN1CCCCC1`, for which the GI50 with IGROV1 ovarian is 31.8 µM; in the test with SW-620 colon, 14.6 µM; with HS 578T breast it was 10.4 µM; with RXF 393 renal, 8.61 µM; in the test on HCT-116 colon, 14 µM; with DU-145 prostate it was 22 µM. Also, the figures for the GI50 with T-47D breast and with SNB-19 CNS were 16.6 µM and 22.2 µM, respectively. Besides, the TGI was 97.7 µM with IGROV1 ovarian; 38.8 µM in the test with SW-620 colon; 61.1 µM with HS 578T breast; 23.6 µM with RXF 393 renal; 57.3 µM in the test with HCT-116 colon; more than 85.3 µM with DU-145 prostate. Further, the TGI in the test with T-47D breast is 61.5 µM; with SNB-19 CNS, more than 100 µM.
With `CC1(C)OC[C@@H]([C@@]2(CO[Si](c3ccccc3)(c3ccccc3)C(C)(C)C)CC=CC(=O)O2)O1`, the GI50 in the test with IGROV1 ovarian is 5.42 µM; in the test with SW-620 colon, 4.55 µM; with HS 578T breast, 9.01 µM; in the test with RXF 393 renal, 9.82 µM; in the test on HCT-116 colon, 4.86 µM; in the test with DU-145 prostate it was 12.7 µM. In addition, the GI50 with T-47D breast is 8.03 µM; in the test on SNB-19 CNS, 15.5 µM. Also, the TGI in the test with IGROV1 ovarian was 80.2 µM; with SW-620 colon, 46.7 µM; in the test with HS 578T breast it was more than 100 µM; in the test with RXF 393 renal, more than 100 µM; in the test with HCT-116 colon it was more than 100 µM; in the test on DU-145 prostate it was more than 100 µM. Besides, the TGI in the test on T-47D breast is more than 100 µM; with SNB-19 CNS, 97.5 µM.
With `COc1cc(CNc2nc3cc(N)cc(N)c3nc2-c2ccccc2)cc(OC)c1`, the GI50 is 8.62 µM in the test with IGROV1 ovarian; 4.45 µM with SW-620 colon; 8.53 µM in the test on HS 578T breast; 6.09 µM with RXF 393 renal; 3.08 µM in the test on HCT-116 colon; 29.7 µM in the test with DU-145 prostate. In addition, the GI50 was 1.67 µM with T-47D breast and 23.4 µM with SNB-19 CNS. Further, the TGI was 55.7 µM with IGROV1 ovarian; more than 100 µM in the test with SW-620 colon; more than 100 µM with HS 578T breast; 58.5 µM in the test on RXF 393 renal; 11.3 µM in the test on HCT-116 colon; more than 100 µM in the test on DU-145 prostate. The TGI is 4.57 µM in the test on T-47D breast and more than 100 µM in the test on SNB-19 CNS.
